Test results from patent US4661494A (priority 1985, dated 1987).

Columns and labels:
Format in all cases: in vivo
[1] = test system: Bean Powdery Mildew organism Erysiphe polygoni; assay: Bean Powdery Mildew control, seedling bean plants; details: inoculated 1 day later, 10 days
Experimental: The compounds of the invention were tested for the control of the Bean Powdery Mildew organism Erysiphe polygoni. Seedling bean plants were sprayed with a 250-ppm solution of the test compound in acetone, water and a nonionic emulsifier. The sprayed plants were then inoculated 1 day later with the organism. The plants were maintained for 10 days at temperatures of 68° F. at night with daytime temperatures of 72° F. to 80° F.; relative humidity was maintained at 40% to 60%. The percent disease control provided by a given test compound was based on the percent disease reduction relative to the untreated check plants.

[2] = test system: Rice Blast organism Piricularia oryzae; assay: whole plant or invertebrate
[3] = test system: Tomato Late Blight organism Phytophthora infestans; assay: whole plant or invertebrate
[4] = test system: Grape Downy Mildew organism Plasmopara viticola; assay: Grape Downy Mildew control, detached grape leaves; details: held 7 to 9 days after 2 days incubation
Experimental: The compounds of the invention were tested for the control of the Grape Downy Mildew organism Plasmopara viticola. Detached leaves, between 70 mm and 85 mm in diameter, 7-week-old Vitis vinifera cultivar Emperor grape seedlings were used as hosts. The leaves were sprayed with a 250-ppm solution of the test compound in acetone. The sprayed leaves were dried, inoculated with a spore suspension of the organism, placed in a humid environmental chamber and incubated at 66° F. to 68° F. and about 100% relative humidity. After incubation for 2 days, the plants were then held in a greenhouse 7 to 9 days; then the amount of disease control was determined. The percent disease control provided by a given test compound was based on the percent disease reduction relative to untreated check plants.

Uromyces phaseoli tipica = assay: Leaf Rust (Bean Rust) control, pinto beans; details: about 14 days
Experimental: The Leaf Rust test was made using pinto beans. The pathogen was Uromyces phaseoli tipica. The pinto bean plants were sprayed with a 250-ppm solution of the test compound in an acetone-water mixture containing a nonionic emulsifier. The treated plants were inoculated thereafter with the pathogen and then incubated in an environmental chamber for approximately 20 hours at 100% relative humidity and a temperature of 68° F. to 70° F. The plants were then removed from the chamber, allowed to dry, and then maintained in a greenhouse at a 60% to 80% relative humidity. The rate of infection on the leaves was made after about 14 days. The percent disease control provided by a given test compound was based on the percent disease reduction relative to untreated check plants.

[5] = test system: Tomato Early Blight organism Alternaria solani conidia; assay: Tomato Early Blight control, tomato seedlings; details: inoculated 1 day later, about 12 days
Experimental: Compounds of the invention were tested for the control of the Tomato Early Blight organism Alternaria solani conidia. Tomato (variety Bonny Best) seedlings of 6- to 7-weeks old were used. The tomato plants were sprayed with a 250-ppm solution of the test compound in an acetone-and-water solution containing a small amount of a nonionic emulsifier. The sprayed plants were inoculated 1 day later with the organism, placed in the environmental chamber and incubated at 66° F. to 68° F. and 100% relative humidity for 24 hours. Following the incubation, the plants were maintained in a greenhouse for about 12 days. Percent disease control was based on the percent disease development on untreated check plants.

[6] = test system: Celery Late Blight organism Septoria apii; assay: whole plant or invertebrate

| Compound | activity at 250 ppm ([1]; Erysiphe polygoni, read-out: Fungicidal Activity % Control BPM) [%] | activity at 625 ppm ([2]; Pyricularia oryzae, read-out: Fungicidal Activity % Control RB) [%] | activity at 250 ppm ([3]; Phytophthora infestans, read-out: Fungicidal Activity % Control TLB) [%] | activity at 250 ppm ([4]; Plasmopara viticola, in Vitis vinifera, read-out: Fungicidal Activity % Control GDM) [%] | activity at 250 ppm (Uromyces phaseoli tipica; Uromyces phaseoli, 336 h, read-out: Fungicidal Activity % Control BR) [%] | activity at 250 ppm ([5]; Alternaria solani, read-out: Fungicidal Activity % Control TEB) [%] | activity at 250 ppm ([6]; 336 h, read-out: Fungicidal Activity % Control CLB) [%] | Fungicidal Activity % Control BPM ([1]; 250 ppm) [%] | Fungicidal Activity % Control RB ([2]; 625 ppm, rice (Calrose M-9), inoculated 1 day later, about 12 to 16 days) [%] | Fungicidal Activity % Control TLB ([3]; 250 ppm, tomato, inoculated 1 day later, approximately 7 days) [%] | Fungicidal Activity % Control GDM ([4]; 250 ppm, detached Vitis vinifera leaves) [%] | Fungicidal Activity % Control BR (Uromyces phaseoli tipica; 250 ppm) [%] | Fungicidal Activity % Control TEB ([5]; 250 ppm) [%] | Fungicidal Activity % Control CLB ([6]; 250 ppm, celery (Utah), approximately 14 days) [%] |
| --- | --- | --- | --- | --- | --- | --- | --- | --- | --- | --- | --- | --- | --- | --- |
| CCCN(CC(=O)Nc1c(Cl)cc(Cl)cc1Cl)C(=O)c1cccnc1 [Compound 1, N-(2,4,6-trichlorophenyl), N'-(n-propyl), N'-(3-pyridylcarbonyl) glycinamide] | 100 | 0 | 0 | 3 | 4 | 85 | 50 |  |  |  |  |  |  |  |
| CCCN(CC(=O)Nc1c(C)cccc1C)C(=O)c1cccnc1 [Compound 2, N-(2,6-dimethylphenyl)-N'-(n-propyl), N'-(3-pyridylcarbonyl) glycinamide] |  |  |  |  |  |  |  | 53 | 0 | 10 | 7 | 0 | 22 | 58 |
